This is an account of results in PMC11840788, “3,3′-Diindolylmethane (DIM): A Molecular Scaffold for Inhibition of WWP1 and WWP2, Members of the NEDD4 Family HECT E3 Ligases” (ACS Omega, 2025).

The target of this test is WWP1 (Homo sapiens, UniProt Q9H0M0). The test is described as follows: STD NMR binding, WWP1. The following applies: 500 μM ligand, 20 μM protein. As for the experimental part: Given the similarities between WWP1 and WWP2 HECT domains, we speculated that the relatively low sensitivity of DSF may not be able to detect weak WWP2-I3C interactions and therefore opted to investigate further using STD NMR. STD NMR is a versatile ligand-based NMR approach, relying on selective saturation of the protein. This saturation is transferred to the ligand when and if the ligand binds, causing a reduction of the signal intensities. The STD intensities are calculated as the difference of the reference spectra (where selective saturation is off) minus the irradiated spectra, and they are proportional to the vicinity of the protein surface. […]
An Amicon centrifuge filter unit with a 10 kDa MW cutoff was used to exchange the protein in 25 mM d19-2,2-bis(hydroxymethyl)-2,2′,2″-nitrilotriethanol, 100 mM NaCl and 1.0 mM DTT buffer pH* 8.9 (uncorrected for the deuterium isotope effect on the pH glass electrode) in D2O. […] All the NMR experiments were performed on a Bruker Avance 800.23 MHz at 278 K. Binding epitope mappings were obtained by determining the initial slopes (STD0) calculated by performing a least-squares fitting of the following monoexponential curve: [drawing 1] where STD(tsat) is the STD intensity for a saturation time, tsat, STDmax is the maximum STD intensity and ksat is the rate constant for saturation transfer. […]

Molecules are shown by their SMILES.

WWP1, sequence (Q9H0M0 546-922 limits assumed): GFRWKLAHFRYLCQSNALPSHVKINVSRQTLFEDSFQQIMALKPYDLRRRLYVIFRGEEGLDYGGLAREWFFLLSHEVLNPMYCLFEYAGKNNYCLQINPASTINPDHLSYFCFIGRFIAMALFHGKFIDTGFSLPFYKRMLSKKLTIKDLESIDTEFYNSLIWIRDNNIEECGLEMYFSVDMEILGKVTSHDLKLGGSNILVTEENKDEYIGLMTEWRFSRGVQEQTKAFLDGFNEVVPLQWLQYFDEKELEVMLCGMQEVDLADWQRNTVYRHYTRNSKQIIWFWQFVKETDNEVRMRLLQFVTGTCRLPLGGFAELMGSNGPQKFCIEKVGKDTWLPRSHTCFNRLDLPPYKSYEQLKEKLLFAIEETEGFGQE

Take `OCc1c[nH]c2ccccc12` [Compound I3C, Indole-3-carbinol, reference compound]: the “STD intensities, WWP1-I3C complex” value is reported as approximately 30%.
